According to patent US9302999B2, “Substituted triazoles as herbicides” (E. I. DU PONT DE NEMOURS AND COMPANY, priority 2012, dated 2016):
Read-outs that look alike come from different tables or passages of the source.

Columns and labels:
Assay type in all cases: in vivo
[1] = tested on: crabgrass, large (large crabgrass, Digitaria sanguinalis); test: Test A pre-/postemergence: crabgrass, large; settings: for pest or weed control at 125 g/ha / pest or weed control at 500 g/ha: Digitaria sanguinalis, 240 h
In short: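 Injury is scored visually on a scale where 0 means no effect and 100 complete control, comparing treated with untreated plants after approximately ten greenhouse days. Both preemergence and postemergence applications are made at the same time.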

[2] = tested on: common (oilseed) sunflower (Helianthus annuus); test: Test C pre-/postemergence: sunflower; settings: Preemergence
In short: (§1)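 Visual injury scored 0–100 (100 = complete control) against untreated controls after 13–15 greenhouse days. Surfactant-containing solvent formulations applied either to soil after sowing (loam/sand) or over 1- to 4-leaf plants, 2–18 cm tall.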

[3] = tested on: barley, winter (winter barley, Hordeum vulgare); test: Test D pre-/postemergence: barley, winter
In short: (§2)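 Scores run from 0 (no effect) to 100 (complete control), assigned by visual comparison with controls after 14 to 21 days in a controlled environment. Both preemergence application to silt loam and postemergence application to 1- to 4-leaf plants were tested.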

soybean (Glycine max) = test: Test C pre-/postemergence: soybean
In short: as §1

[4] = tested on: barley, spring (spring barley, Hordeum vulgare); test: Test D pre-/postemergence: barley, spring
In short: as §2

[5] = tested on: ducksalad (Heteranthera limosa); test: Test B flooded paddy: ducksalad; settings: Flood; 250 g ai/ha; applied to paddy water at 2-leaf stage; visually evaluated after 13 to 15 days
In short: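 2-leaf plants; pots flooded 3 cm over soil; compound added to paddy water, depth kept constant. Greenhouse 13–15 d. Visual rating vs controls, 0–100 scale (100 = complete control); dash = no result.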

[6] = 31 g ai/ha, scale of 0 to 100, 0 is no effect, 100 is complete control
[7] = 62 g ai/ha, scale of 0 to 100, 0 is no effect, 100 is complete control
[8] = 125 g ai/ha, scale 0 to 100, 0 no effect, 100 complete control
[9] = 250 g ai/ha, scale 0 to 100, 0 no effect, 100 complete control
[10] = Postemergence, 31 g ai/ha, scale 0 to 100 (0 no effect, 100 complete control)
[11] = Postemergence, 62 g ai/ha, scale 0 to 100 (0 no effect, 100 complete control)
[12] = Postemergence, 125 g ai/ha, scale 0 to 100, 0 no effect, 100 complete control
[13] = Postemergence, 250 g ai/ha, scale 0 to 100 (0 no effect, 100 complete control)
[14] = Postemergence, 16 g ai/ha, scale 0 to 100
[15] = Preemergence, 16 g ai/ha, scale 0 to 100 (0 no effect, 100 complete control)
[16] = Preemergence, 31 g ai/ha, scale 0 to 100 (0 no effect, 100 complete control)
[17] = Preemergence, 62 g ai/ha, scale 0 to 100
[18] = Preemergence, 125 g ai/ha, scale 0 to 100
[19] = Preemergence, 250 g ai/ha, scale 0 to 100
[20] = Postemergence, 250 g ai/ha, scale 0 to 100
[21] = Preemergence, 31 g ai/ha, scale of 0 to 100, 0 is no effect, 100 is complete control
[22] = Preemergence, 62 g ai/ha, scale of 0 to 100, 0 is no effect, 100 is complete control
[23] = Preemergence, 125 g ai/ha, scale 0 to 100, 0 no effect, 100 complete control
[24] = Preemergence, 250 g ai/ha, scale 0 to 100, 0 no effect, 100 complete control
[25] = Postemergence, 125 g ai/ha, 0 to 100 scale, 0 is no effect, 100 is complete control
[26] = Postemergence, 500 g ai/ha, visual rating on 0 to 100 scale (0 no effect, 100 complete control), approximately ten days
[27] = Preemergence, 125 g ai/ha, 0 to 100 scale where 0 is no effect and 100 is complete control
[28] = Preemergence, 500 g ai/ha, 0 to 100 scale (0 no effect, 100 complete control)
[29] = Postemergence, 8 g ai/ha, scale 0 to 100

SMILES | Plant response rating, Sunflower [2, 6] | Plant response rating, Sunflower [2, 7] | Plant response rating, Sunflower [2, 8] | Plant response rating, Sunflower [2, 9] | Plant response rating: Barley, Winter [3, 10] | Plant response rating: Barley, Winter [3, 11] | Plant response rating: Barley, Winter [3, 12] | Plant response rating, Barley, Winter [3, 14] | Plant response rating, Soybean (soybean (Glycine max); [10]) | Plant response rating, Soybean (soybean (Glycine max); [11]) | Plant response rating, Soybean (soybean (Glycine max); [12]) | Plant response rating, Soybean (soybean (Glycine max); [20]) | Plant response rating, Soybean (soybean (Glycine max); [22]) | Plant response rating, Soybean (soybean (Glycine max); [23]) | Plant response rating, Soybean (soybean (Glycine max); [24]) | Plant response rating: Barley, Spring [4, 10] | Plant response rating: Barley, Spring [4, 11] | Plant response rating: Barley, Spring [4, 12] | Plant response rating, Barley, Spring [4, 14] | Crabgrass, Large plant response rating [1, 25] | other results
Cc1nn(-c2ccc(F)cc2)nc1Oc1ccnc(C(F)(F)F)c1 [Compound 129, 4-[[2-(4-fluorophenyl)-5-methyl-2H-1,2,3-triazol-4-yl]oxy]-2-(trifluoromethyl)pyridine] | 0 | 0 | 0 | 0 | 5 | 10 | 15 | 5 | 20 | 40 | 70 | 75 | 0 | 10 | 40 | 5 | 5 | 10 | 5 |  | pest or weed control at 125 g/ha ([1]; post-emergence, Postemergence, 125 g ai/ha, 0 to 100 scale, 0 is no effect, 100 is complete control, read-out: Crabgrass, Large plant response rating): 90%; pest or weed control at 500 g/ha ([1]; post-emergence, Postemergence, 500 g ai/ha, visual rating on 0 to 100 scale (0 no effect, 100 complete control), approximately ten days, read-out: Crabgrass, Large plant response rating): 90%; pest or weed control at 125 g/ha ([1]; pre-emergence, Preemergence, 125 g ai/ha, 0 to 100 scale where 0 is no effect and 100 is complete control, read-out: Plant response rating, Crabgrass, Large): 100%; pest or weed control at 500 g/ha ([1]; pre-emergence, Preemergence, 500 g ai/ha, 0 to 100 scale (0 no effect, 100 complete control), read-out: Plant response rating, Crabgrass, Large): 100%; Plant response rating: Barley, Winter [3, 13]: 30; Plant response rating, Barley, Winter [3, 15]: 0; Plant response rating, Barley, Winter [3, 16]: 0; Plant response rating, Barley, Winter [3, 17]: 0; Plant response rating, Barley, Winter [3, 18]: 10; Plant response rating, Barley, Winter [3, 19]: 15; Plant response rating, Soybean (soybean (Glycine max); [21]): 0; Plant response rating: Barley, Spring [4, 13]: 10; Plant response rating, Barley, Spring [4, 15]: 0; Plant response rating, Barley, Spring [4, 16]: 0; Plant response rating, Barley, Spring [4, 17]: 5; Plant response rating, Barley, Spring [4, 18]: 15; Plant response rating, Barley, Spring [4, 19]: 20
Fc1ccc(-n2nc(Cc3ccnc(C(F)(F)F)c3)c(OCC(F)(F)F)n2)cc1 [Compound 142] | 15 |  | 15 | 25 |  |  |  |  | 50 | 55 | 55 | 55 | 5 | 5 | 20 |  |  |  |  | 100 | Crabgrass, Large plant response rating [1, 26]: 100; Plant response rating, Crabgrass, Large [1, 27]: 100; Plant response rating, Crabgrass, Large [1, 28]: 100; Plant response rating, Ducksalad (0 to 100 scale, 0 is no effect, 100 is complete control) [5]: 90; Plant response rating, Soybean (soybean (Glycine max); [21]): 0
Cc1nn(-c2ccc(F)c(F)c2)nc1Oc1ccnc(C(F)(F)F)c1 [Compound 145] | 0 | 5 | 20 | 25 | 5 | 10 | 20 | 5 | 50 | 50 | 55 | 60 | 5 | 5 | 10 | 10 | 15 | 20 | 10 | 90 | Crabgrass, Large plant response rating [1, 26]: 90; Plant response rating, Crabgrass, Large [1, 27]: 100; Plant response rating, Crabgrass, Large [1, 28]: 100; Plant response rating, Ducksalad (0 to 100 scale, 0 is no effect, 100 is complete control) [5]: 60; Plant response rating, Barley, Winter [3, 29]: 0; Plant response rating, Barley, Spring [4, 29]: 5
Cc1nn(-c2ccc(F)c(C(F)(F)F)c2)nc1Oc1ccnc(C(F)(F)F)c1 [Compound 147] | 15 | 15 | 15 | 25 | 20 | 25 | 30 | 15 |  |  |  |  | 20 | 20 | 35 | 15 | 20 | 25 | 15 | 80 | Crabgrass, Large plant response rating [1, 26]: 90; Plant response rating, Crabgrass, Large [1, 27]: 100; Plant response rating, Crabgrass, Large [1, 28]: 100; Plant response rating, Ducksalad (0 to 100 scale, 0 is no effect, 100 is complete control) [5]: 40; Plant response rating, Barley, Winter [3, 15]: 0; Plant response rating, Barley, Winter [3, 16]: 0; Plant response rating, Barley, Winter [3, 17]: 5; Plant response rating, Barley, Winter [3, 18]: 15; Plant response rating, Barley, Spring [4, 15]: 0; Plant response rating, Barley, Spring [4, 16]: 0; Plant response rating, Barley, Spring [4, 17]: 5; Plant response rating, Barley, Spring [4, 18]: 10
